Drawing on paper PMC11232109, “Synthesis, anticancer evaluation of novel hybrid pyrazole-based chalcones, molecular docking, DNA fragmentation, and gene expression: in vitro studies” (RSC Advances, 2024), this text covers IC50 for 1 compound.

In this test the test system is BJ1 (normal skin fibroblasts). The test can be described thus: MTT assay, normal cell line BJ1. The class given is cell-based. As to conditions: Skin fibroblast, 48 hours. The procedure:
The percentage of the cell viability treated with the newly synthesized compounds was evaluated using MTT assay (3-(4,5-dimethylthiazol-2-yl)-2,5-diphenyl tetrazolium bromide). All the subsequent steps were done in a sterile Laminar flow class II biosafety cabinet (Baker, SG406INT, Sanford, ME, USA). DMEM was used as a suspension medium for breast cancer (MCF7), prostate cancer (PC3), and pancreatic cancer (PACA2), while normal cell line (BJ1) was suspended in DMEM-F12 medium, a 1% antibiotic-antimycotic mixture (10 000 U ml^−1 potassium penicillin, 10 000 μg ml^−1 streptomycin sulfate, and 25 μg ml^−1 amphotericin B), and 1% L-glutamine at 37 °C under 5% CO2.
Cells were cultured for 10 days and then seeded at a concentration of 10 × 10^4 cells per well in fresh complete growth medium in 96-well microtiter plastic plates at 37 °C for 24 hours under 5% CO2 using a water-jacketed carbon dioxide incubator (Sheldon, TC2323). Media were aspirated, serum-free fresh medium was added, and cells were incubated either alone (negative control) or with different concentrations of the synthesized chalcone derivatives to a final concentration of (100–50–25–12.5–6.25–3.125–0.78 and 1.56 μg ml^−1). After incubation for 48 hours, the medium was aspirated and 40 μl of MTT salt ([…]) was added to each well and incubated for another four hours at 37 °C under 5% CO2. To stop the reaction and dissolve the formed crystals, 200 μl of 10% sodium dodecyl sulfate (SDS) in deionized water was added to each well and incubated overnight at 37 °C.
The absorbance was then measured at 595 nm and a reference wavelength of 620 nm using a microplate multi-well reader (Bio-Rad Laboratories Inc., model 3350). Statistical significance was tested between the samples and the negative control (cells with vehicle) using an independent t-test using the SPSS 11 program. DMSO was the vehicle used for the dissolution of the synthesized chalcones, and its final concentration on the cells was less than 0.2%. The percentage of change in viability was calculated according to the formula: ((reading of extract/reading of negative control) − 1) × 100. A Probit analysis was carried out for the determination of IC50 using the SPSS 11 program.

On to `COc1cccc2c1C(=O)c1c(O)c3c(c(O)c1C2=O)C[C@@](O)(C(=O)CO)C[C@@H]3O[C@H]1C[C@H](N)[C@H](O)[C@H](C)O1` [Doxorubicin, reference compound], for which half-maximal inhibition (IC50) required 13.6 ± 0.28 µM.
